Experimental findings from ChEMBL document CHEMBL5316313, “Discovery of Novel 3-Phenylpiperidine Derivatives Targeting the β-Catenin/B-Cell Lymphoma 9 Interaction as a Single Agent and in Combination with the Anti-PD-1 Antibody for the Treatment of Colorectal Cancer” (J Med Chem, 2023) are described below.

Structures are written as SMILES. The source made the active and inactive calls. The rule behind the calls is not given here.

For data set [1], the system named is EL4. Kind of data set: Cytotoxicity against CFSE labeled SIINFEKL activated OT-1 mouse derived EL4 cells assessed as change in antigen specific cell viability at 1 to 10 uM preincubated with compound for 24 hrs followed by co-cultured with C57BL/6 mouse splenocyte derived CD8+ T cells in presence of anti-PD-1 antibody cotreatment by flow cytometry. The following applies: dose 1-10 µM. The class given is functional, cell-based.

The subject of data set [2] is HCT-116. Kind of data set: Cytotoxicity against Wnt-dependent human HCT-116 cells assessed as reduction in cell viability at 10 to 20 uM by LDH release assay. The class given is toxicity, cell-based. The following applies: hct-116, 20 µM, dose 10-20 µM.
Data set [3] can be described thus: Toxicity in BALB/c mouse xenografted with mouse CT26 cells assessed as pathological changes in bone marrow at 30 mg/kg, ip QD in presence of anti-PD-1 antibody cotreatment at 10 mg/kg,ip BIW by hematoxylin and eosin staining based microscopic analysis. Format: organism-based. Particulars: in vivo.
A short description of data set [4]: Toxicity in BALB/c mouse xenografted with mouse CT26 cells assessed as pathological changes in lung at 30 mg/kg, ip QD in presence of anti-PD-1 antibody cotreatment at 10 mg/kg,ip BIW by hematoxylin and eosin staining based microscopic analysis. Format: organism-based. Particulars: in vivo.
For data set [5], the system named is HCT-116. Kind of data set: Induction of apoptosis in Wnt-dependent human HCT-116 cells assessed as necrotic cells at 20 uM incubated for 24 hrs by Annexin V-Alexa Fluor 647/PI staining based flow cytomtery (Rvb=1.47%). The class given is functional.
Data set [6] concerns CT26. The data set is described as follows: Antitumor activity in mouse CT26 cells xenografted in BALB/c mouse assessed as increase in granzyme B-positive CD8+ T cell infiltration into tumor at 30 mg/kg, ip QD by flow cytometry. Format: functional, organism-based. In general terms: A flow cytometer gives signals particle by particle.

For `CC(C)c1ccc(-c2cccc(S(=O)(=O)N3CCCC(c4cccc(OC(C)(C)C(=O)NS(=O)(=O)c5ccc(C(F)(F)F)cc5)c4)C3)c2)cc1` (stereo unspecified), the Activity result in data set [1] was “Dose-Dependent Effect”; in data set [2] it was “Non-Toxic”; in data set [3], “Non-Toxic”; in data set [4] it was “Non-Toxic”; in data set [5], 3.22%. In data set [6], the result was Active.
